# Measurements: patent EP1460077B1, “Novel pyrazolopyrimidones and their use as PDE inhibitors” (The Jordanian Pharmaceutical Manufacturing Co. Ltd., priority 2003, dated 2004)
# How the values were obtained:
# [1] = system: rabbits; experiment: Penile erection index for rabbits in dependency on time (according to Bischof and Schneider); type: in vivo; parameters: penile erection index: scale not given here
# Description: (§1) The purpose of the study was to compare the biological activity of the compositions of the present invention with that of sildenafil. In particular, the erection episodes and penile erection indexes of the compounds and compositions in the treatment of male rats and rabbits were determined.
# (§2) Details on the determination of PEI values can be found in e.g. H.H. Ang and M.K. Sim, Effects of Eurycoma longifilia Jack on Penile Erection Indes and Homosexual Mounting in Rats, Pharmaceutical Sciences, 3 (1997), 117-19; and A. Benassi-Benelli, F. Ferrari and B. Pellegrini Quaratotti, Penile erection Induced by Apomorphine and N-n-propyl-norapomorphine in Rats, Arch. Int. Pharmacodyn 242 (1979), 241-247. The episode is a description for rat sucking their penus.
# (§3) Rabbit experiments where performed according to E. Bischof and K. Schneider, "International Journal of Impotence Research", 13 (2001) 230 - 235, and rat experiments where performed according to EP 1057829 A1.
# Studying the penile erection index for rabbits in dependency on time yields the results given in table 1 for sildenafil and the compound (III).
# [2] = system: male rats; experiment: Erection episodes and Penile Erection Index (PEI) in male rats within 2 hours (according to EP 1057829 A1); type: in vivo; conditions: 10 rats
# Description: as §1, §2, §3
# Further, the effect on penile length of rats was studied and the following results are given in table 2 for a compound disclosed in the invention and in table 3 for sildenafil. The penile length is indicative of the efficacy of the administered medicament.
smiles,measurement,setting,value
"CCCc1nn(C)c2c(=O)[nH]c(-c3cc(S(=O)(=O)N4CCN(C)CC4)ccc3OCC)nc12 [Sildenafil, sildenafil]","efficacy (penile erection index for rabbits), comparison in words","[1]; comparison of sildenafil, compound III and compositions",greater efficacy than compounds III
same,penile erection index,[1]; time 0 min,0
same,penile erection index,[1]; time 5 min,18.318
same,penile erection index,[1]; time 10 min,16.694
same,penile erection index,[1]; time 15 min,15.22
same,penile erection index,[1]; time 20 min,13.108
same,penile erection index,[1]; time 30 min,11.218
same,penile erection index,[1]; time 40 min,7.364
same,penile erection index,[1]; time 50 min,2.94
same,No. of episodes,[2]; dose 0.0781 mg/kg,3
same,PEI,[2]; dose 0.0781 mg/kg,90
same,No. of episodes,[2]; dose 0.1562 mg/kg,5
same,PEI,[2]; dose 0.1562 mg/kg,150
same,No. of episodes,[2]; dose 0.3125 mg/kg,7
same,PEI,[2]; dose 0.3125 mg/kg,350
same,No. of episodes,[2]; dose 0.6250 mg/kg,14
same,PEI,[2]; dose 0.6250 mg/kg,980
